{"source": "patent US20040057926A1", "about": "“Modulation of the immune response through the manipulation of arginine levels” (LSU Medical Center, priority 2002, published 2004)", "key": {"Jurkat cells [1]": {"tested_on": "Jurkat cells", "experiment": "CD3ζ chain expression in Jurkat cells on L-arginine depletion or replenishment (Western blot, flow cytometry)", "type": "cell-based", "method": "Next, it was tested whether L-arginine depletion altered the expression of the key elements of the T-cell antigen receptor and IL-2 receptor in Jurkat cells. […] The decreased expression of ζ chain was not due to an overall protein degradation since the expression of GAPDH and CD3ε was virtually unchanged over the same period of time. […] The initial decrease in CD3ζ could be seen as early as 24 hours, but continued up to 7 days in culture as compared to its expression in Jurkat cells cultured in C-RPMI that remains unchanged (data not shown).\nReappearance of CD3ζ chain occurred either by adding L-arginine alone at a concentration of 100 μM (FIGS. 4a, dashed line, and 4b, lane 3), or by replacing the TCM with C-RPMI (FIGS. 4a, solid line, and 4b, lane 4). […] The data discussed is representative of at least five experiments in each case."}, "purified T-cells": {"tested_on": "purified T-cells", "experiment": "CD3ζ expression in stimulated purified T-cell cultures with H. pylori sonicate", "type": "cell-based, human", "settings": "sonicate 20 μg/ml, L-arginine 400 μM", "method": "After isolating peripheral blood mononuclear cells by Ficoll-Paque Plus (Amersham Pharmacia Biotech; Piscataway, N.J.), T-cells were purified by negative selection by using an affinity column (R & D Systems; Minneapolis, Minn.). The purity was always >90% T-cells as measured by the expression of CD3ε. H. pylori extracts or live H. pylori have no effect on resting T-cells, therefore T-cells were stimulated by cross linking anti-CD3 plus anti-CD28 as follows: 24 well plates were coated with 0.3 ml of goat-anti mouse (GAM) (Kirkegaard & Perry Laboratories; Gaithersburg, Md.) at 10 μg/ml in HBSS for 1 h. After washing twice with Hank's balanced salt solution (HBSS), 0.5×10^6 of purified T-cells were added per well in 1 ml of RPMI without L-arginine containing 1 μg/ml of anti-human CD3 (Ortho Diagnostics, Raritan, N.J.) and 100 ng/ml of anti-human CD28 (Becton-Dickinson) and cultured for 24 h. After this time L-arginine was added to the wells to give a final concentration of 0.4 mM. H. pylori sonicate (20 μg/ml) from either the wild type strain ATCC 43504 or its rocF (−) isogenic mutant was also added to the wells. After 24 h under these conditions, the cells were recovered and stained for CD3ζ. Six different donors were tested. […]"}, "CAT-3": {"target": "CAT-3 (Homo sapiens, UniProt Q8WY07)", "sequence (Q8WY07 whole entry, species assumed)": "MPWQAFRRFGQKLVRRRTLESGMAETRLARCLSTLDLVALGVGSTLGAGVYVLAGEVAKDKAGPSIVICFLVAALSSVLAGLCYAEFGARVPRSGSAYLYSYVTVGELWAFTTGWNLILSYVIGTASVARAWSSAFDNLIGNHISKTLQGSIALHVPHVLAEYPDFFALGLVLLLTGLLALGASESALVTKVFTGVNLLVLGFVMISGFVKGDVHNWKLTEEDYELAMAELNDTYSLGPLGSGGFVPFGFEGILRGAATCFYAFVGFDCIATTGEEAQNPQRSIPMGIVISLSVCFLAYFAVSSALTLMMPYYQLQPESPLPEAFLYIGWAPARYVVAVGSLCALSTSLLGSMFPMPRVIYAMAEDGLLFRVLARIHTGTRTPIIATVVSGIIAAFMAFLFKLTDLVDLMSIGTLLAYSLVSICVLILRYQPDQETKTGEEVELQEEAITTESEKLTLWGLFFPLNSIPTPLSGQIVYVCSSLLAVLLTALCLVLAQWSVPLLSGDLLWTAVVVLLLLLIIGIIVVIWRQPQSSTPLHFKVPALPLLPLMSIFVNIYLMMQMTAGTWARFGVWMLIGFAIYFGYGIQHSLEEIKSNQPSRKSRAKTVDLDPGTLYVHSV", "settings": "read-out: Km for L-Arg; cited from earlier work"}, "Jurkat cells [2]": {"tested_on": "Jurkat cells", "experiment": "CD3ζ chain expression in Jurkat cells with H. pylori sonicate or proteins", "type": "cell-based", "settings": "NOHA 10 μg/ml; difference not statistically significant", "method": "Jurkat cells were cultured for 24 h in medium with the H. pylori sonicate at concentrations ranging from 1 μg/ml to 50 μg/ml. CagA (2 μg/ml) (Austral Biologicals; San Ramon, Calif.), VacA (4 μg/ml) (Austral), H. pylori urease A (2 μg/ml) (Austral), H. pylori urease B (2 μg/ml) (Austral) and E. coli LPS (500 ng/ml) (Sigma-Aldrich; St Louis, Mo.) were also used. Jurkat and T-cells were counted and stained with FITC-conjugated anti-human CD3 (Beckman-Coulter; Miami, Fla.) for 20 min in the dark. After washing with PBS the cells were stained for 8 min with phycoerythrin (PE)-conjugated anti-human CD3ζ (Beckman-Coulter; Miami, Fla.) in PBS containing 50 μg/ml of digitonin. The cells were washed twice in PBS and analyzed in an EPICS XL Coulter Flow Cytometer. The results compare the percentage of cells expressing CD3ζ as well as the mean fluorescence intensity.\n[…] After addition of the sonicate plus NOHA or sonicate plus L-arginine mixture to the Jurkat cells, 1.0 μCi of ^3H-thymidine (NEN) was added per well, the cells were incubated at 37° C. for 18 h, harvested onto filters and counted in a β-counter (Packard)."}, "ASE I": {"tested_on": "ASE I", "experiment": "Western blot for ASE I in PM cytoplasmic extracts", "type": "cell-based, mice", "settings": "NOHA 100 μM, Nor-NOHA 50 μM", "method": "Cytoplasmic extracts from PM, Jurkat cells or T lymphocytes were prepared as previously reported. Taheri, F., J. B. Ochoa, Z. Faghiri, K. Culotta, H. J. Park, M. S. Lan, A. H. Zea, and A. C. Ochoa. 2001. L-Arginine regulates the expression of the T-cell receptor zeta chain (CD3zeta) in Jurkat cells. Clin Cancer Res 7:958s-965s. Briefly, cells were resuspended in lysis buffer (50 mM HEPES, 150 mM NaCl, 5 mM EDTA, 1 mM NaOV4 and 0.5% Triton) containing 50 μg/ml of aprotinin, 50 μg/ml of leupeptin, 100 μg/ml of trypsin-chymotrypsin inhibitor and 2 mM PMSF. Lysates were centrifuged at 3000×g for 10 min at 4° C. Cytoplasmic extracts from Jurkat or T-cells were immunoblotted for CD3ζ and CD3ε. The expression ASE I, ASE II and iNOS was detected by immunoblot using PM extracts. GAPDH was used as housekeeping protein. Cytoplasmic extracts were electrophoresed in 12 or 8% Tris-Glycine gels (Novex, San Diego, Calif.), transferred to PVDF membranes and immunoblotted with the appropriate antibodies. The reactions were detected using the ECL kit (Amersham-Pharmacia)."}}, "data": [{"smiles": "N=C(N)NCCC[C@H](N)C(=O)O", "note": "[L-arginine]", "values": [{"measurement": "L-Arg concentrations that cause the rapid decrease of CD3ζ chain", "setting": "Jurkat cells [1]; Jurkat cells, in vitro", "value": "below 40 μM"}, {"measurement": "loss of CD3ζ on replenishing L-arginine in the tissue culture medium", "setting": "Jurkat cells [1]; L-arginine alone at 100 μM", "value": "fully reversible"}, {"measurement": "CD3ζ expression in stimulated T-cells", "setting": "purified T-cells", "value": "recovered CD3ζ expression"}, {"measurement": "Km", "setting": "CAT-3", "value": 100, "unit": "µM"}]}, {"smiles": "NC(=NCCC[C@H](N)C(=O)O)NO", "note": "[NOHA, NG-hydroxy-L-arginine]", "values": [{"measurement": "CD3ζ chain expression in Jurkat cells treated with H. pylori sonicate", "setting": "Jurkat cells [2]", "value": "partially inhibited the drop in CD3ζ chain expression"}, {"measurement": "ASE I up regulation after IL-4+IL-13 stimulation", "setting": "ASE I", "value": "did not prevent ASE I up regulation"}]}]}
